For data set [1], the target named is T1, human thyroid hormone receptors TRβ1 (Homo sapiens, UniProt P10828).
T1 construct: made in house; host or cells: Sf9 insect cells (baculovirus)
T1 sequence (P10828 1-461): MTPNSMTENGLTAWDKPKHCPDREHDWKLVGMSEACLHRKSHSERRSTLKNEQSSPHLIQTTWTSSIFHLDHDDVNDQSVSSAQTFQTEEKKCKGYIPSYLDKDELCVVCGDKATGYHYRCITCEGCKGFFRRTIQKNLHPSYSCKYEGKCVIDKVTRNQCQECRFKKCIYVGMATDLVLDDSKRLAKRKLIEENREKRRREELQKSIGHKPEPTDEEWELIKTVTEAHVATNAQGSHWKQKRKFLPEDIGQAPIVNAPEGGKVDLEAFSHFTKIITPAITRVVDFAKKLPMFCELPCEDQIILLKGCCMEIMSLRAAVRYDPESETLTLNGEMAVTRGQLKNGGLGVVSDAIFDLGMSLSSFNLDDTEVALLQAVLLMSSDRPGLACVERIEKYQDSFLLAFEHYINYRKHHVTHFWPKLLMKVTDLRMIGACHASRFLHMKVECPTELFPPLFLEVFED
T1 sequence (P19793 1-462 partner): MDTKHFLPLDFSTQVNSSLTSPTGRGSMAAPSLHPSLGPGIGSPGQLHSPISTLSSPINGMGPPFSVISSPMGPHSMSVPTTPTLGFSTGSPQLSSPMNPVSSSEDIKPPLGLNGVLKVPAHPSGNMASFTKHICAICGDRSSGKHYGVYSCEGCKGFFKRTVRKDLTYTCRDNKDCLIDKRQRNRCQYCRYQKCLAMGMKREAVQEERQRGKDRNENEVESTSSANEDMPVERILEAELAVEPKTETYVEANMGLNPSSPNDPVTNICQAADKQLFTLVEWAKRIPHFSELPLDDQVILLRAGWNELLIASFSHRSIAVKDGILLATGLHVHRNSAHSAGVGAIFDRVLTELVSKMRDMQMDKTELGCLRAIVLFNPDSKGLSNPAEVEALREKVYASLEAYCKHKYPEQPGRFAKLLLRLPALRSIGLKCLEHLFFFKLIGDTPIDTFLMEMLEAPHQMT
The experiment in a line: Receptor binding to TRβ1 (gel filtration and scintillation proximity assay, labeled T3). The note with it: read-out: Ki TRβ.

For data set [2], the system named is plasma cholesterol. In words: Cholesterol lowering in hypercholesterolemic rats. Conditions: Rattus norvegicus, percentage change from pre-dose cholesterol, read-out: % Cholesterol Lowering. The format is in vivo.
Data set [3] deals with T2, human thyroid hormone receptors TRα1 (Homo sapiens, UniProt P10827).
T2 construct: made in house; host or cells: Sf9 insect cells (baculovirus)
T2 sequence (P10827 1-410 isoform P10827-2): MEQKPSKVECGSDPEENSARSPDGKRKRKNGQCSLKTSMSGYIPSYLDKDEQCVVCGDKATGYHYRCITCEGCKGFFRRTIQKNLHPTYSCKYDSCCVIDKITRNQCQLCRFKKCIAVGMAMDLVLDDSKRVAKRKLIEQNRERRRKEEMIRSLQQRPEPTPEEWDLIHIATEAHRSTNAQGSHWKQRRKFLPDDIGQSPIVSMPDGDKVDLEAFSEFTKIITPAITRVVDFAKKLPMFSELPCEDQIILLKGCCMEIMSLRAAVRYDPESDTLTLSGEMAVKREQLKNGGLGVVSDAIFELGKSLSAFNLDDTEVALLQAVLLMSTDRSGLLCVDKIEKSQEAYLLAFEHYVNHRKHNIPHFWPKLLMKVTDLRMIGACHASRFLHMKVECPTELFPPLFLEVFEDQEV
T2 sequence (P19793 1-462 partner): T1 sequence (P19793 1-462 partner)
The experiment in a line: Receptor binding to TRα1 (gel filtration and scintillation proximity assay, labeled T3). Conditions: read-out: Ki TRα.

Data set [4] in a line: Continuous infusion study in rats on a cholesterol-containing diet. The format is in vivo. Conditions: continuous infusion 1 mg/kg/day.
Procedure: Screening for thyromimetic activity was performed in normal rats maintained on a cholesterol-containing diet. Compounds were administered by continuous infusion using an osmotic pump at 1 mg/kg/day.
Where [5] appears, read: ip, delivered i.p (0.2 mg/kg/d).
Setting [6] is: po, delivered p.o. (0.2 mg/kg/d).

Each structure is given as a SMILES string. Read-outs that look alike come from different tables or passages of the source.

The term Ki denotes a measure of affinity in units of concentration, obtained from inhibition or displacement. For `CC(C)c1cc(Oc2c(Cl)cc(OCP(=O)(O)O)cc2Cl)ccc1O` [Compound 8-2, [3,5-dichloro-4-(3′-iso-propyl-4′-hydroxyphenoxy)phenoxy]methylphosphonic acid], the Ki in data set [1] (SPA data) came out at 20 nM; in data set [3] (SPA data), 114 nM. Besides, the change in vivo at 0.2 mg/kg/day in data set [2] (setting [5]) is -48%.
`CC(C)c1cc(Oc2c(Br)cc(CCP(=O)(O)O)cc2Br)ccc1O` [Compound 67, 2-[3,5-dibromo-4-(4′-hydroxy-3′-isopropylphenoxy)phenyl]ethylphosphonic Acid]: the figures for the Ki in data set [1] (SPA data) and in data set [3] (SPA data) were 1.8 nM and 37 nM, respectively. Moreover, the change in vivo at 0.2 mg/kg/day in data set [2] (setting [6]) is -17%.
With `Cc1cc(Cc2c(C)cc(OCP(=O)(O)O)cc2C)cc(C(C)C)c1O` [Compound 7-10, [3,5-dimethyl-4-(4′-hydroxy-3′-iso-propyl-5′-methyl benzyl)phenoxy]methylphosphonic Acid], the inhibition constant Ki in data set [1] (SPA data) worked out at 48 nM; in data set [3] (SPA data) it was 112 nM. Besides, the change in vivo at 0.2 mg/kg/day in data set [2] (setting [5]) is -25.8%.
On to `Cc1cc(CCCP(=O)(O)O)cc(C)c1Oc1ccc(O)c(C(C)C)c1` [Compound 29, 3-[3,5-dimethyl-4-(4′-hydroxy-3′-iso-propylphenoxy)phenyl]propylphosphonic acid], for which the values for the Ki in data set [1] (SPA data) and in data set [3] (SPA data) were 47 nM and 661 nM, respectively. In addition, the change in vivo at 0.2 mg/kg/day in data set [2] (setting [5]) is -21.9%.
On to `CCOP(=O)(O)COc1cc(C)c(Cc2ccc(O)c(C(C)C)c2)c(C)c1` [Compound 69-1, [3,5-dimethyl-4-(4′-hydroxy-3′-iso-propylbenzyl)phenoxy]methylphosphonic acid monoethyl ester], for which the cholesterol lowering effects entry in data set [4] (day 7 and day 14) is reported as “demonstrated cholesterol lowering effects”. Besides, the “cardiovascular parameters (heart rate, LV dP/dt, systolic and diastolic blood pressure)” value in data set [4] (day 7 or day 14) was “no changes in any of the cardiovascular parameters”.
As to `CCc1cc(Cc2c(C)cc(OCP(=O)(O)O)cc2C)ccc1O` [Compound 7-8, [3,5-dimethyl-4-[3′-ethyl-4′-hydroxybenzyl]phenoxy]methylphosphonic acid], the Ki in data set [1] came to 9.7 nM; in data set [3] it was 62 nM. In addition, the change in vivo at 0.2 mg/kg/day in data set [2] (setting [5]) is -28.6%.
As to `CC(C)c1cc(Cc2c(Cl)cc(OCP(=O)(O)O)cc2Cl)cc(Br)c1O` [Compound 7-14, [3,5-dichloro-4-(5′-bromo-4′-hydroxy-3′-iso-propylbenzyl)phenoxy]methylphosphonic acid], the Ki is 52 nM in data set [1] (SPA data) and 429 nM in data set [3] (SPA data). The change in vivo at 0.2 mg/kg/day in data set [2] (setting [5]) was -32.9%.
Turning to `Cc1cc2[nH]c(P(=O)(O)O)cc2c(C)c1Oc1ccc(O)c(C(C)C)c1` [Compound 66], the Ki in data set [1] (SPA data) is 121 nM; in data set [3] (SPA data), 863 nM. In addition, the results for the change in vivo at 0.2 mg/kg/day in data set [2] (setting [5]) and in data set [2] (setting [6]) were -42.9% and -12.5%, respectively.
Regarding `Cc1cc(OC(F)(F)P(=O)(O)O)cc(C)c1Cc1ccc(O)c(C(C)C)c1` [Compound 7-6, difluoro-[3,5-dimethyl-4-(4′-hydroxy-3′-iso-propylbenzyl)phenoxy]methylphosphonic acid], the results for the Ki in data set [1] (SPA data) and in data set [3] (SPA data) were 7.6 nM and 98 nM, respectively. Moreover, in data set [2] (setting [5]), the change in vivo at 0.2 mg/kg/day is -13.5%.
For the molecule `CC(C)c1cc(Oc2c(I)cc(OCP(=O)(O)O)cc2I)ccc1O` [Compound 8, [3,5-diiodo-4-(4′-hydroxy-3′-iso-propylphenoxy)phenoxy]methylphosphonic acid], the Ki in data set [1] was found to be 0.97 nM; in data set [3], 3.74 nM. In addition, the change in vivo at 0.2 mg/kg/day in data set [2] (setting [5]) was -24.3%; in data set [2] (setting [6]), -20.6%.
With `Cc1cc(OCP(=O)(O)O)cc(C)c1Oc1ccc(O)c(C(C)C)c1` [Compound 31, [3,5-dimethyl-4-(4′-hydroxy-3′-iso-propylphenoxy)phenoxy]methylphosphonic acid], the Ki in data set [1] (SPA data) stood at 73 nM; in data set [3] (SPA data), 540 nM. In data set [2] (setting [5]), the change in vivo at 0.2 mg/kg/day is -21.1%.
Regarding `CC(C)c1cc(Oc2c(Cl)cc(NCP(=O)(O)O)cc2Cl)ccc1O` [Compound 22, [3,5-dichloro-4-(4′-hydroxy-3′-iso-propylphenoxy)phenylamino]methylphosphonic acid], the Ki was determined as 31 nM in data set [1] (SPA data) and 186 nM in data set [3] (SPA data). Moreover, the figures for the change in vivo at 0.2 mg/kg/day in data set [2] (setting [5]) and in data set [2] (setting [6]) were -44% and -16.5%, respectively.
For `Cc1cc(OCP(=O)(O)O)c(I)c(C)c1Cc1ccc(O)c(C(C)C)c1` [Compound 46, [3,5-Dimethyl-4-(4′-hydroxy-3′-iso-propylbenzyl)-2-iodophenoxy]methylphosphonic Acid] the same measures were 2 nM, 20 nM, -29.6% and -23.8%.
As to `CCC(C)c1cc(Cc2c(C)cc(OCP(=O)(O)O)cc2C)ccc1O` (stereo not drawn) [Compound 7-3, [3,5-dimethyl-4-(3′-sec-butyl-4′-hydroxybenzyl)phenoxy]methylphosphonic acid], the values for the inhibitory constant (Ki) in data set [1] (SPA data) and in data set [3] (SPA data) were 6.6 nM and 31 nM, respectively. The change in vivo at 0.2 mg/kg/day in data set [2] (setting [5]) is -45.4%; in data set [2] (setting [6]), -36.5%.
For the molecule `Cc1cc(OCP(=O)(O)O)cc(C)c1Cc1ccc(O)c(-c2ccccc2)c1` [Compound 7-1, [3,5-dimethyl-4-(4′-hydroxy-3′-phenylbenzyl)phenoxy]methylphosphonic acid], the inhibition constant Ki was 106 nM in data set [1] (SPA data) and 1170 nM in data set [3]. For the same molecule, the change in vivo at 0.2 mg/kg/day in data set [2] (setting [6]) was -12.2%.
On to `O=P(O)(O)Cc1cc(Cl)c(Oc2ccc(O)c(Cc3ccc(F)cc3)c2)c(Cl)c1` [Compound 11, 3,5-dichloro-4-[3′-(4-fluorobenzyl)-4′-hydroxyphenoxy]benzylphosphonic acid], for which the results for the Ki in data set [1] (SPA data) and in data set [3] (SPA data) were 30.3 nM and 121 nM, respectively. In addition, the results for the change in vivo at 0.2 mg/kg/day in data set [2] (setting [5]) and in data set [2] (setting [6]) were -36.4% and -5.1%, respectively.
For the molecule `Cc1cc(OCP(=O)(O)O)cc(C)c1Cc1ccc(O)c(Cc2ccccc2)c1` [Compound 38, [4-(3′-benzyl-4′-hydroxy-benzyl)-3,5-dimethylphenoxy]methylphosphonic acid], the Ki in data set [1] (SPA data) stood at 5.4 nM; in data set [3] (SPA data) it was 254 nM. In addition, the change in vivo at 0.2 mg/kg/day in data set [2] (setting [5]) is -21.7%.
Take `CC(C)c1cc(Oc2c(Cl)cc(CP(=O)(O)O)cc2Cl)ccc1O` [Compound 19, [3,5-dichloro-4-(4′-hydroxy-3′-iso-propylphenoxy)]benzylphosphonic acid]: the inhibitory constant (Ki) in data set [1] amounted to 52 nM; in data set [3] it was 304 nM. In data set [2] (setting [5]), the change in vivo at 0.2 mg/kg/day was -19%.
Consider `Cc1cc(OCP(=O)(O)O)cc(C)c1Cc1ccc(O)c(Cc2ccc(F)cc2)c1` [Compound 40, [3,5-dimethyl-4-[3′-(4-fluoro-benzyl)-4′-hydroxy-benzyl]phenoxy]methylphosphonic acid], for which the Ki in data set [1] (SPA data) was found to be 1.1 nM; in data set [3] (SPA data), 30 nM. In addition, the change in vivo at 0.2 mg/kg/day in data set [2] (setting [5]) was -64.2%; in data set [2] (setting [6]) it was -27.3%.
With `Cc1cc(CCP(=O)(O)O)cc(C)c1Cc1ccc(O)c(Cc2ccccc2)c1` [Compound 42, 2-[3,5-dimethyl-4-[3′-benzyl-4′-hydroxy-benzyl]phenyl]-ethylphosphonic acid], the Ki in data set [1] (SPA data) turned out to be 16.2 nM; in data set [3] (SPA data), 794 nM. Further, in data set [2] (setting [5]), the change in vivo at 0.2 mg/kg/day was -28.8%.
Consider `CC(C)c1cc(Oc2c(Br)cc(OCP(=O)(O)O)cc2Br)ccc1O` [Compound 8-1, [3,5-dibromo-4-(3′-iso-propyl-4′-hydroxyphenoxy)phenoxy]methylphosphonic acid], for which the inhibition constant (Ki) amounted to 2.51 nM in data set [1] and 18.6 nM in data set [3]. In addition, the change in vivo at 0.2 mg/kg/day in data set [2] (setting [6]) is -32.2%.
